How the values were obtained:
carbonic anhydrase [1] = assay: Corning Epic binding of carbonic anhydrase to wells pre-coated with attachment peptides; settings: carbonic anhydrase at 1 μM; 30 and 180 minute incubation
Text: The selected candidate peptides were applied to the wells of a Corning Epic System 384-well microplate by linking the C-terminal cysteines of the peptides to surface amines of the Epic microplate wells via the maleimide and amine moieties, respectively, of a BMPH linker (Pierce). The immobilization of the peptides to the Epic microplate wells without carbonic anhydrase was first evaluated to identify any peptides binding poorly to the well surface, and to provide a basis for computing the maximum wavelength shift theoretically obtainable with optimal binding of the carbonic anhydrase to the peptides at a concentration sufficient to saturate. […] This could reflect inadequate binding to the surface due to poor solubility of the poorly binding peptides.
Carbonic anhydrase was applied in Epic microplate wells in which the selected peptides had been pre-applied to the well surface, in groups of four replicate wells and in carbonic anhydrase concentrations ranging from 31 nM to 1 μM. Observed wavelength shifts after 30 minute incubation of the indicated concentrations of carbonic anhydrase with peptides CA4, CA8, CA9, CA10, CA11, and CA12 are shown in FIG. 7(a).

carbonic anhydrase [2] = assay: Corning Epic binding of dansylamide to carbonic anhydrase immobilized by attachment peptides; settings: 1 μM dansylamide; six carbonic anhydrase concentrations, four replicates each; nearly all replicates
Procedure: Dansylamide, a known inhibitor of carbonic anhydrase, was applied to a range of concentrations (31 nM to 1 μM) of carbonic anhydrase immobilized in Epic wells by peptides CA4, CA8, CA9, CA10, CA11, and CA12. […] Wavelength shifts on the order of approximately 10 to 20 pm were observed upon application of the dansylamide to carbonic anhydrase immobilized at 1 μM concentration on peptides CA4, CA8, and CA11, confirming that the carbonic anhydrase was immobilized in an orientation that preserved the availability of the binding site (active site) and ability of the enzyme to consistently bind the inhibitor dansylamide, and confirming that the attachment peptides were able to immobilize carbonic anhydrase in the wells of an Epic plate in a manner such that binding of dansylamide to the carbonic anhydrase was readily detectable by the Epic technology.
For nearly all replicates, a shift on the order of 20 pm was observed upon application of the dansylamide.

beta-galactosidase = beta-galactosidase (Escherichia coli, UniProt P00722); settings: 50 nM beta-galactosidase, 5 μM FDG, 0.5 hour preincubation; selected peptide at 2, 10, 50, 100 μM
Procedure: The enzyme activity of the entity beta-galactosidase when bound to the selected peptide having the sequence […] (SEQ ID NO. 2), was evaluated in solution phase by preincubating varying concentrations of the peptide with beta-galactosidase for 0.5 hour, then adding substrate FDG in solution and measuring 520 nm fluorescence upon 488 nm excitation at a series of time points.

[3] = test system: T1, comparison attachment peptide (sequence ESVPTDLPMDTMEGKNWGSC (SEQ ID NO. 14))
T1 sequence: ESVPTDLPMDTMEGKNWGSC

[4] = test system: T2, selected peptide having the sequence FRNFPVPVIFRYLNPWPGSC (SEQ ID NO. 2)
T2 sequence: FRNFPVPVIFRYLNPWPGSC

Sequence of beta-galactosidase (P00722 2-1024): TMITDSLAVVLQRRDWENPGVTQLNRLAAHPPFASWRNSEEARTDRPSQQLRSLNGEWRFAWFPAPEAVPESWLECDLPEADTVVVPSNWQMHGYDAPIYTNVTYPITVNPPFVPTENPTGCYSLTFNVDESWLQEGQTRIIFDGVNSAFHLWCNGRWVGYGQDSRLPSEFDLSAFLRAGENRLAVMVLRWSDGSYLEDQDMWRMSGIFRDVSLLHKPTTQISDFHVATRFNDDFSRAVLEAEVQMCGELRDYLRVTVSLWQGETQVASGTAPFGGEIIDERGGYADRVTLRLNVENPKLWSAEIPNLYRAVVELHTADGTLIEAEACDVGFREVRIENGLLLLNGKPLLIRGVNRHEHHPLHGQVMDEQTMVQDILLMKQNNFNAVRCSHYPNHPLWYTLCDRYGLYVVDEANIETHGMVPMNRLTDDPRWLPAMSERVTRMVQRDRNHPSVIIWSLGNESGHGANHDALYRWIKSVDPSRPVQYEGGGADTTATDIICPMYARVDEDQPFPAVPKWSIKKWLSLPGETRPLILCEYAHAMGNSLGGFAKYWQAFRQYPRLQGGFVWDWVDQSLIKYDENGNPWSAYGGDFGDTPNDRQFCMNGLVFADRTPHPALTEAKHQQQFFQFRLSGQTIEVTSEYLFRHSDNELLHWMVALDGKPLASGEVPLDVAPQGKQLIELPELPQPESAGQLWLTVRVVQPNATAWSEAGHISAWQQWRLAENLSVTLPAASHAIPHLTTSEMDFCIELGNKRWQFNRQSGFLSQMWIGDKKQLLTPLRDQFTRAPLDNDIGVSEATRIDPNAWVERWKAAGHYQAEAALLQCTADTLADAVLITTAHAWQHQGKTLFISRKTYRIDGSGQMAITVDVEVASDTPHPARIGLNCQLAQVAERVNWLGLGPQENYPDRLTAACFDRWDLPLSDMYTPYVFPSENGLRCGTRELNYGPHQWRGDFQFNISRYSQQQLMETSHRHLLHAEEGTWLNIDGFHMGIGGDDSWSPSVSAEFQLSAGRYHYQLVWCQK

Substance | wavelength shift on binding of carbonic anhydrase to peptide (carbonic anhydrase [1]) | also measured
CA4: 20-residue candidate attachment peptide for carbonic anhydrase, C-terminal glycine-serine-cysteine; sequence only in FIG. 6A (HWHHRWWHHWKHPHHWRGSC; CA4 (Carbonic Anhydrase Peptide 4)) | wavelength shifts which persisted even after 180 minutes incubation | –
CA8: 20-residue candidate attachment peptide for carbonic anhydrase, C-terminal glycine-serine-cysteine; sequence only in FIG. 6A (RHWKWHWWRRHHPHHWFGSC; CA8 (Carbonic Anhydrase Peptide 8)) | wavelength shifts which persisted even after 180 minutes incubation | –
CA9: 20-residue candidate attachment peptide for carbonic anhydrase, C-terminal glycine-serine-cysteine; sequence only in FIG. 6A (RVFKRYKRWLHVSRYYFGSC; CA9 (Carbonic Anhydrase Peptide 9)) | wavelength shifts which persisted even after 180 minutes incubation | –
CA11: 20-residue candidate attachment peptide for carbonic anhydrase, C-terminal glycine-serine-cysteine; sequence only in FIG. 6A (IEDTYLRFRHYGWYNNNGSC; CA11 (Carbonic Anhydrase Peptide 11)) | wavelength shifts which persisted even after 180 minutes incubation | wavelength shift upon application of dansylamide (time course) (carbonic anhydrase [2]): ~20 pm
CA12: 20-residue candidate attachment peptide for carbonic anhydrase, C-terminal glycine-serine-cysteine; sequence only in FIG. 6A (SIGIYGHAIARPGGWYFGSC; CA12 (Carbonic Anhydrase Peptide 12)) | wavelength shifts which persisted even after 180 minutes incubation | –
ESVPTDLPMDTMEGKNWGSC [SEQ ID NO. 14] | – | 520 nm fluorescence intensity (beta-galactosidase activity) relative to beta-galactosidase alone (beta-galactosidase): slightly higher than for beta-galactosidase alone
FRNFPVPVIFRYLNPWPGSC [SEQ ID NO. 2] | – | 520 nm fluorescence intensity (beta-galactosidase activity) relative to beta-galactosidase alone (beta-galactosidase): significantly lower than that for beta-galactosidase alone
beta-galactosidase | – | 520 nm fluorescence intensity (FDG hydrolysis by beta-galactosidase, solution phase) [3]: slightly higher than for beta-galactosidase alone; 520 nm fluorescence intensity (FDG hydrolysis by beta-galactosidase, solution phase; peptide at 2, 10, 50 and 100 µM) [4]: at all concentrations was significantly lower than that for beta-galactosidase alone

From patent US8481679B2, “Immobilizing an entity in a desired orientation on a support material” (Arizona Board of Regents Acting on behalf of Arizona State …, priority 2007, dated 2013)
